Test results as given in patent publication US12329745B2, “Methods and compositions for treating glucocorticoid excess” (Sparrow Pharmaceuticals, Inc., priority 2022, dated 2025).
Marks after values point to notes of the source that are not given here.

Key:
[1] = tested on: urine tetrahydrocortisone; test: Urine tetrahydrocortisone (excreted cortisone metabolite; liver cortisone levels); type: in vivo, human; details: healthy adults
Experimental: In healthy adults administered a single dose of 10, 20, or 50 mg SPI-62 (n=40), the least squares mean (standard error) tetrahydrocortisone was 32.71 (1.149) […] compared to 9.19 (2.300) mol after a single dose of matching placebo (n=10). In the same subjects after 14 daily doses, tetrahydrocortisone was 42.73 (1.968) mol for SPI-62 and 8.51 (0.410) mol for placebo. Similar results were also observed in elderly adults.

[2] = molecular target: T1, human HSD-1 expressed in CHO cells (Homo sapiens, UniProt P28845); test: Inhibition of human HSD-1 expressed in CHO cells; type: cell-based
T1 construct: expressed in transfected cells; host or cells: CHO cells

HSD-1 = HSD-1 (Homo sapiens, UniProt P28845); details: both, in vivo
[3] = Phase 2 trial 3662-CL-0049 in painful diabetic peripheral neuropathy: TC, glucose, HbA1c, TG; type: in vivo, human
Experimental: Analyses of covariance were conducted to analyze total cholesterol (TC), glucose, glycated hemoglobin (HbA1c), and triglycerides (TG), with baseline value as the covariate and a baseline*treatment interaction term, in patients with painful diabetic peripheral neuropathy following daily administration of SPI-62 or placebo. Data were obtained from study 3662-CL-0049, a Phase 2 randomized, double-blind, placebo- and active-controlled clinical trial of the safety and efficacy of SPI-62 in subjects with painful diabetic peripheral neuropathy.

brain HSD-1 = molecular target: T2, brain HSD-1 (Homo sapiens, UniProt P28845); test: Brain HSD-1 occupancy by PET, competition with [11C]AS2471907; type: in vivo; details: single dose 3 mg
T2 construct: Brain HSD-1 occupancy following a single dose of SPI-62 3 mg; from tissue; host or cells: brain in vivo
Experimental: Brain HSD-1 occupancy following a single dose of SPI-62 3 mg, assessed by competition with the HSD-1-specific PET ligand [^11C]AS2471907, was 84-90% at 3.3 to 25 hours, 56-83% at 42 to 46 hours, 36 to 45% at 139 hours, and 26% at 189 hours. The pharmacologic half-life of SPI-62 in brain is, as expected, shorter than that in liver.

serum cortisone = test: Serum cortisone and cortisol in patients with painful diabetic peripheral neuropathy; type: in vivo, human; details: 10 mg for 6 weeks
C57BL/6 male mice = test: Mitigation of corticosterone (CORT) adverse effects in mouse; type: in vivo; set-up: food consumption, group Mean: unit not given here; details: for Fat depot weight, Gonadal, Mean / Fat depot weight, Mesenteric, Mean / Fat depot weight, Retroperitoneal, Mean / Fat depot weight, Subcutaneous, Mean / Muscle weight, Quadriceps, Mean / Muscle weight, Tibialis anterior, Mean: post-mortem Day 36
Experimental: A control group received no CORT or SPI-62. Body weight was assessed daily and food consumption twice weekly. Whole body muscle and fat amounts were measured at Days 0, 14, and 28 using an EchoMRI-130H body composition analyzer. Blood samples for fasting glucose and insulin were obtained at Days 1 (pre-dose), 15, 29, and 35. An open field test was conducted on Day 22. A grip strength test was performed on Day 28. After sacrifice on Day 36, gonadal, subcutaneous, retroperitoneal, and mesenteric fat, quadriceps, and tibialis anterior were dissected and weighed, and skin was formalin fixed and paraffin embedded.

T2 sequence (P28845 whole entry): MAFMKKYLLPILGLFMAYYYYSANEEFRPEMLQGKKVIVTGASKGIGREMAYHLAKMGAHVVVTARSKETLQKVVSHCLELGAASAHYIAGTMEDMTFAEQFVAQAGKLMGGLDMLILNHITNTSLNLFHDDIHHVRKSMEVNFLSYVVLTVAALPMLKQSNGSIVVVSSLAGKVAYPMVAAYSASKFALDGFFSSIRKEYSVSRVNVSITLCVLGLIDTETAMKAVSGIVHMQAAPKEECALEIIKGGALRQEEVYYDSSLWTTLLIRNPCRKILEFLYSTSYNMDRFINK
Chain of HSD-1 (P28845 whole entry): as above
T1 sequence (P28845 whole entry): as above

## Cn1c(-c2ccc(C(N)=O)cc2F)nnc1C(C)(C)Oc1c(F)cc(Cl)cc1F [SPI-62, 4-(5-(2-(4-chloro-2,6-difluorophenoxy)propan-2-yl)-4-methyl-4H-1,2,4-triazol-3-yl)-3-fluorobenzamide]
[1]; after 14 daily doses
  urine tetrahydrocortisone, least squares mean (standard error): 42.73 (1.968) mol
[1]; single dose of 10, 20, or 50 mg (n=40)
  urine tetrahydrocortisone, least squares mean (standard error): 32.71 (1.149) mol
[2]
  Ki: 12.6 nM
HSD-1
  total target amount in the central compartment (RTOT): 7.84 µM
[3]; Week 6/EOT
  Glucose, least squares mean (standard error): 7.61 (0.556) mmol/L
  HbA1c, least squares mean (standard error): 7.1%
  TG, least squares mean (standard error): 1.68 (0.202) mmol/L
[3]; Week 6/EOT, N = 36
  TC, least squares mean (standard error): 3.95 (0.120) mmol/L
[3]; Week 8/EOS
  Glucose, least squares mean (standard error): 7.78 (0.546) mmol/L
  HbA1c, least squares mean (standard error): 7.02%
  TC, least squares mean (standard error): 4.16 (0.105) mmol/L
  TG, least squares mean (standard error): 1.63 (0.113) mmol/L
Brain HSD-1; 3.3 to 25 hours
  brain HSD-1 occupancy: 84-90%
Brain HSD-1; 42 to 46 hours
  brain HSD-1 occupancy: 56-83%
Serum cortisone
  serum cortisol: did not change
Serum cortisone; last day of study drug administration (n=36)
  serum cortisone: 56.0 (2.37) nM
Serum cortisone; two weeks later
  serum cortisone: 49.5 (1.75) nM
C57BL/6 male mice; 1 mg/kg QD + CORT, Day 14
  Whole-body fat content LSM: 0.121^a
  Whole-body muscle content LSM: 0.82^a
C57BL/6 male mice; 1 mg/kg QD + CORT, Day 15
  HOMA-IR LSM: 3.73ª mmol glucose/μU insulin
C57BL/6 male mice; 1 mg/kg QD + CORT, Day 28
  Whole-body fat content LSM: 0.142^ab
  Whole-body muscle content LSM: 0.77^a
C57BL/6 male mice; 1 mg/kg QD + CORT, Day 29
  HOMA-IR LSM: 3.56^ab mmol glucose/μU insulin
C57BL/6 male mice; 1 mg/kg QD + CORT, Day 35
  HOMA-IR LSM: 8.16^b mmol glucose/μU insulin
C57BL/6 male mice; 1 mg/kg QD + CORT
  Fat depot weight, Gonadal, Mean: 10.60 mg/g body weight
  Fat depot weight, Mesenteric, Mean: 6.46 mg/g body weight
  Fat depot weight, Retroperitoneal, Mean: 3.33 mg/g body weight
  Fat depot weight, Subcutaneous, Mean: 4.04 mg/g body weight
  Muscle weight, Quadriceps, Mean: 3.98 mg/g body weight
  Muscle weight, Tibialis anterior, Mean: 1.60 mg/g body weight
C57BL/6 male mice; 10 mg/kg BID + CORT, Day 14
  Whole-body fat content LSM: 0.064^b
  Whole-body muscle content LSM: 0.89^b
C57BL/6 male mice; 10 mg/kg BID + CORT, Day 15
  HOMA-IR LSM: 0.94^b mmol glucose/μU insulin
C57BL/6 male mice; 10 mg/kg BID + CORT, Day 28
  Whole-body fat content LSM: 0.061^b
  Whole-body muscle content LSM: 0.86^b
C57BL/6 male mice; 10 mg/kg BID + CORT, Day 29
  HOMA-IR LSM: 0.94^b mmol glucose/μU insulin
C57BL/6 male mice; 10 mg/kg BID + CORT, Day 35
  HOMA-IR LSM: 2.16^b mmol glucose/μU insulin
C57BL/6 male mice; 10 mg/kg BID + CORT
  Fat depot weight, Gonadal, Mean: 6.02 mg/g body weight
  Fat depot weight, Mesenteric, Mean: 4.73 mg/g body weight
  Fat depot weight, Retroperitoneal, Mean: 2.21 mg/g body weight
  Fat depot weight, Subcutaneous, Mean: 1.95 mg/g body weight
  Muscle weight, Quadriceps, Mean: 5.90 mg/g body weight
  Muscle weight, Tibialis anterior, Mean: 2.36 mg/g body weight
C57BL/6 male mice; 10 mg/kg QD + CORT, Day 14
  Whole-body fat content LSM: 0.061^b
  Whole-body muscle content LSM: 0.87^b
C57BL/6 male mice; 10 mg/kg QD + CORT, Day 15
  HOMA-IR LSM: 1.41^b mmol glucose/μU insulin
C57BL/6 male mice; 10 mg/kg QD + CORT, Day 28
  Whole-body fat content LSM: 0.115^ab
  Whole-body muscle content LSM: 0.80^b
C57BL/6 male mice; 10 mg/kg QD + CORT, Day 29
  HOMA-IR LSM: 1.88^ab mmol glucose/μU insulin
C57BL/6 male mice; 10 mg/kg QD + CORT, Day 35
  HOMA-IR LSM: 2.28^b mmol glucose/μU insulin
C57BL/6 male mice; 10 mg/kg QD + CORT
  Fat depot weight, Gonadal, Mean: 8.44 mg/g body weight
  Fat depot weight, Mesenteric, Mean: 6.23 mg/g body weight
  Fat depot weight, Retroperitoneal, Mean: 2.40 mg/g body weight
  Fat depot weight, Subcutaneous, Mean: 3.35 mg/g body weight
  Muscle weight, Quadriceps, Mean: 5.33 mg/g body weight
  Muscle weight, Tibialis anterior, Mean: 2.14 mg/g body weight
C57BL/6 male mice; 1 mpk QD + CORT, Baseline
  body weight, group Mean: 22.1 g
C57BL/6 male mice; 1 mpk QD + CORT, Day 4
  food consumption, group Mean: 3.26
C57BL/6 male mice; 1 mpk QD + CORT, Day 8
  food consumption, group Mean: 2.92
C57BL/6 male mice; 1 mpk QD + CORT, Day 11
  food consumption, group Mean: 3.09
C57BL/6 male mice; 1 mpk QD + CORT, Day 15
  body weight, group Mean: 21.9 g
  food consumption, group Mean: 3.04
C57BL/6 male mice; 1 mpk QD + CORT, Day 18
  food consumption, group Mean: 2.91
C57BL/6 male mice; 1 mpk QD + CORT, Day 22
  food consumption, group Mean: 3.23
C57BL/6 male mice; 1 mpk QD + CORT, Day 25
  food consumption, group Mean: 3.74
C57BL/6 male mice; 1 mpk QD + CORT, Day 29
  body weight, group Mean: 23.2 g
  food consumption, group Mean: 2.90
C57BL/6 male mice; 1 mpk QD + CORT, Day 32
  food consumption, group Mean: 2.77
C57BL/6 male mice; 1 mpk QD + CORT, Day 35
  body weight, group Mean: 23.8 g
C57BL/6 male mice; 1 mpk QD + CORT, Day 36
  food consumption, group Mean: 3.13
C57BL/6 male mice; 10 mpk BID + CORT, Baseline
  body weight, group Mean: 22.1 g
C57BL/6 male mice; 10 mpk BID + CORT, Day 4
  food consumption, group Mean: 3.36
C57BL/6 male mice; 10 mpk BID + CORT, Day 8
  food consumption, group Mean: 2.88
C57BL/6 male mice; 10 mpk BID + CORT, Day 11
  food consumption, group Mean: 2.92
C57BL/6 male mice; 10 mpk BID + CORT, Day 15
  body weight, group Mean: 21.5 g
  food consumption, group Mean: 2.74
C57BL/6 male mice; 10 mpk BID + CORT, Day 18
  food consumption, group Mean: 3.36
C57BL/6 male mice; 10 mpk BID + CORT, Day 22
  food consumption, group Mean: 2.89
C57BL/6 male mice; 10 mpk BID + CORT, Day 25
  food consumption, group Mean: 3.13
C57BL/6 male mice; 10 mpk BID + CORT, Day 29
  body weight, group Mean: 21.7 g
  food consumption, group Mean: 2.79
C57BL/6 male mice; 10 mpk BID + CORT, Day 32
  food consumption, group Mean: 3.27
C57BL/6 male mice; 10 mpk BID + CORT, Day 35
  body weight, group Mean: 21.8 g
C57BL/6 male mice; 10 mpk BID + CORT, Day 36
  food consumption, group Mean: 2.83
C57BL/6 male mice; 10 mpk QD + CORT, Baseline
  body weight, group Mean: 22 g
C57BL/6 male mice; 10 mpk QD + CORT, Day 4
  food consumption, group Mean: 3.37
C57BL/6 male mice; 10 mpk QD + CORT, Day 8
  food consumption, group Mean: 2.98
C57BL/6 male mice; 10 mpk QD + CORT, Day 11
  food consumption, group Mean: 3.11
C57BL/6 male mice; 10 mpk QD + CORT, Day 15
  body weight, group Mean: 21.4 g
  food consumption, group Mean: 2.91
C57BL/6 male mice; 10 mpk QD + CORT, Day 18
  food consumption, group Mean: 3.08
C57BL/6 male mice; 10 mpk QD + CORT, Day 22
  food consumption, group Mean: 3.15
C57BL/6 male mice; 10 mpk QD + CORT, Day 25
  food consumption, group Mean: 3.50
C57BL/6 male mice; 10 mpk QD + CORT, Day 29
  body weight, group Mean: 22.2 g
  food consumption, group Mean: 2.99
C57BL/6 male mice; 10 mpk QD + CORT, Day 32
  food consumption, group Mean: 3.00
C57BL/6 male mice; 10 mpk QD + CORT, Day 35
  body weight, group Mean: 22.8 g
C57BL/6 male mice; 10 mpk QD + CORT, Day 36
  food consumption, group Mean: 3.24
C57BL/6 male mice; 35 days, FIG. 12
  CORT effects on dermal thickness and structure: less prominent
C57BL/6 male mice; Day 22
  effect in the open field test: No effect
C57BL/6 male mice; Day 28
  CORT adverse effect of grip strength reduction: prevented
